Values quoted from earlier work in patent US7067320B2, “Sensor for luminescense-optical determination of an analyte” (Roche Diagnostics Operations, Inc., priority 2000, dated 2006).
Read-outs that look alike come from different tables or passages of the source.

| Molecule | pKa | pKa (second value printed in the same cell) |
| --- | --- | --- |
| Cc1ccc(O)c(N=Nc2c(O)cc(S(=O)(=O)O)c3ccccc23)c1 [Calmagit] | 8.0 | – |
| Dibromoxylenol blue | 7.6 | – |
| O=S1(=O)OC(c2cc(Br)c(O)c(Br)c2)(c2cc(Br)c(O)c(Br)c2)c2ccccc21 [Bromophenol blue] | 3.8 | – |
| Cc1c(C2(c3cc(C(C)C)c(O)c(Br)c3C)OS(=O)(=O)c3ccccc32)cc(C(C)C)c(O)c1Br [Bromothymol blue] | 6.7 | – |

Second part, the molecule after the results:

| pKa | pKa (second value printed in the same cell) | Molecule |
| --- | --- | --- |
| 7.1 | – | O=C1C=CC(=Nc2ccc(O)cc2)C=C1Cl [o-chlorophenol-indophenol] |
| 6.7 | 7.9 | O=C1OC(c2ccc(O)c3ccccc23)(c2ccc(O)c3ccccc23)c2ccccc21 [Naphthol-phthalein] |
